Consider 2 compounds from patent publication US20240188566A1, “Biocidal Composition and Method” (ARXADA, LLC, priority 2021, published 2024).

Data set [1] deals with Pseudomonas aeruginosa, Escherichia coli, Enterobacter cloacae, Acinetobacter calcoaceticus. Briefly: In-can challenge test, modified ASTM D2574-97 (Table 1). In kind it is cell-based. Here is the method: (§1) Various formulations were made in accordance with the present disclosure and tested for performance. In one challenge test, the efficacy of dicyandiamide as an adjuvant for BIT was evaluated using modified ASTM D2574-97 “Standard Test Method for Resistance of Emulsion Paints in the Container to Attack by Microorganisms” with higher inoculation volumes and frequency. A standard consortium of four (4) bacterial populations: Pseudomonas aeruginosa, Escherichia coli, Enterobacter cloacae, Acinetobacter calcoaceticus was used to inoculate three (3) different samples at ten percent (10%), five percent (5%), or two and a half percent (2.5%) of the sample size. At twenty-four (24) hours and seventy-two (72) hours after each inoculation, a portion of each sample was streaked on tryptic soy agar. A dilution plate count was performed at the last seventy-two (72) hour time point.
(§2) Example data provided in Tables 1, 2 and 3 should be understood as indicating the degree of microbial growth observed for a given data point unless otherwise indicated. In particular, each plate is ranked from 0 through 5c (i.e., one of 0, 1, 2, 3, 4, 5, or 5c) according to the degree of observed microbial growth, where: a “0” ranking indicates no growth; a “1” ranking indicates one (1) through five (5) observed colony forming unit (cfu), i.e., the plate was very lightly contaminated; a “2” ranking indicates six (6) through fifteen (15) cfu, i.e., the plate was lightly contaminated; a “3” ranking indicates sixteen (16) through thirty (30) cfu, i.e., the plate was moderately contaminated; a “4” ranking indicates thirty-one (31) through forty-five (45) cfu, i.e., the plate was heavily contaminated; a “5” ranking indicates greater than (45) cfu, i.e., the plate was severely contaminated; and a “5c” ranking indicates confluent growth, i.e., the plate was very severely contaminated. Thus, for instance, Table 1, Challenge 1 at 24 h for BIT 50 ppm has a value of 5 indicating greater than forty-five (45) cfu were observed. As another example for illustration, Table 1, Challenge 1 at 24 h for dicyandiamide 5,000 ppm+BIT 50 ppm has a value of 1 indicating one (1) through five (5) cfu was observed.

The test system is the same in data set [2]. The experiment in a line: Repeat in-can challenge test, same conditions (Table 2). The format is cell-based. Here is the method:
as §1, §2

The test system of data set [3] is bacteria, fungi, and yeast. To be noted: background statement; cited from earlier work.
The conditions of data set [4]: neutral pH; cited from earlier work.
[5] abbreviates: BIT 50 ppm, Challenge 1 (10%), 24 h.
The mark [6] stands for this setting: BIT 50 ppm, Challenge 1 (10%), 72 h.
Setting [7] is: BIT 50 ppm, Challenge 2 (5%), 72 h.
The mark [8] stands for this setting: BIT 50 ppm, Challenge 3 (2.5%), 24 h.
Setting [9] is: BIT 50 ppm, Challenge 3 (2.5%), 72 h.
[10] abbreviates: BIT 100 ppm, Challenge 1 (10%), 24 h.
Setting [11] is: BIT 100 ppm, Challenge 1 (10%), 72 h.
Setting [12] is: BIT 100 ppm, Challenge 2 (5%), 72 h.
The mark [13] stands for this setting: BIT 100 ppm, Challenge 3 (2.5%), 24 h.
The mark [14] stands for this setting: BIT 100 ppm, Challenge 3 (2.5%), 72 h.

Regarding `O=c1[nH]sc2ccccc12` [BIT, 1,2-benzisothiazolin-3-one], the “degree of microbial growth (plate ranking)” value (shortened to “degree of microbial growth”) is recorded as 5 (a “5” ranking indicates greater than (45) cfu, i.e., the plate was severely contaminated) in data set [1] (setting [5]); 2 (a “2” ranking indicates six (6) through fifteen (15) cfu, i.e., the plate was lightly contaminated) in data set [1] (setting [6]); 5 (a “5” ranking indicates greater than (45) cfu, i.e., the plate was severely contaminated) in data set [1] (setting [7]); 5c in data set [1] (setting [8]); 5 (a “5” ranking indicates greater than (45) cfu, i.e., the plate was severely contaminated) in data set [1] (setting [10]); 0 in data set [1] (setting [11]). Further, the “degree of microbial growth” value in data set [1] (setting [12]) is recorded as 0; in data set [1] (setting [13]) it was 5 (a “5” ranking indicates greater than (45) cfu, i.e., the plate was severely contaminated); in data set [2] (BIT 35 ppm, Challenge 1 (10%), 24 h) it was 5c; in data set [2] (BIT 35 ppm, Challenge 1 (10%), 72 h), 5c; in data set [2] (BIT 35 ppm, Challenge 2 (5%), 72 h) it was 5c; in data set [2] (BIT 35 ppm, Challenge 3 (2.5%), 24 h), 5c. Besides, the “degree of microbial growth” value is on record as 5c in data set [2] (setting [5]); 5c in data set [2] (setting [6]); 5c in data set [2] (setting [7]); 5c in data set [2] (setting [8]); 5c in data set [2] (BIT 65 ppm, Challenge 1 (10%), 24 h); 3 (a “3” ranking indicates sixteen (16) through thirty (30) cfu, i.e., the plate was moderately contaminated) in data set [2] (BIT 65 ppm, Challenge 1 (10%), 72 h). In addition, the “degree of microbial growth” value is given as 5c in data set [2] (BIT 65 ppm, Challenge 2 (5%), 72 h); 5c in data set [2] (BIT 65 ppm, Challenge 3 (2.5%), 24 h); 5c in data set [2] (BIT 75 ppm, Challenge 1 (10%), 24 h); 0 in data set [2] (BIT 75 ppm, Challenge 1 (10%), 72 h); 5 (a “5” ranking indicates greater than (45) cfu, i.e., the plate was severely contaminated) in data set [2] (BIT 75 ppm, Challenge 2 (5%), 72 h); 5c in data set [2] (BIT 75 ppm, Challenge 3 (2.5%), 24 h). Also, the “degree of microbial growth” value in data set [2] (setting [10]) is 5c; in data set [2] (setting [11]), 0; in data set [2] (setting [12]), 5 (a “5” ranking indicates greater than (45) cfu, i.e., the plate was severely contaminated); in data set [2] (setting [13]), 5c. Moreover, the dilution plate count in data set [1] (setting [9]) was 7.8 × 10^6; in data set [1] (setting [14]) it was 5.0 × 10^1; in data set [2] (BIT 35 ppm, Challenge 3 (2.5%), 72 h), 3.0 × 10^6; in data set [2] (setting [9]), 6.6 × 10^6; in data set [2] (BIT 65 ppm, Challenge 3 (2.5%), 72 h), 1.0 × 10^6; in data set [2] (BIT 75 ppm, Challenge 3 (2.5%), 72 h) it was 2.8 × 10^5. In addition, the dilution plate count in data set [2] (setting [14]) is recorded as 1.8 × 10^7. In data set [3], the “amount required for a reliable and quick biocidal activity” value is no more than 500 ppm.

For Zinc pyrithione [ZPT], in data set [4], the solubility in water is listed as 8 ppm.
